Test results as given in publication PMC7287882, “Dual miRNases for Triple Incision of miRNA Target: Design Concept and Catalytic Performance” (Molecules, 2020).

Test system: miR-17
Test: Ribonuclease activity assay with DC or ON and RNase H, miR-17
Format: biochemical
Details: for total extent of miRNA cleavage in the presence of RNase H: miRNA 1 µM, DC or ON 20 µM, buffer (2) pH 7.8, 37 °C, at plateau, by 2 h
Method: It is known that DNA-like antisense oligonucleotides after binding to target RNAs form a substrate for intracellular endonuclease RNases H. RNA hydrolysis in RNA-DNA heteroduplex by RNase H1 occurs at a distance of 6–10 nucleotides from the 5′-end of RNA (approximately one turn of the helix). Our design of the Dual conjugates here was carried out in such a way to ensure that their heteroduplexes with the matching miRNA sequences could serve as potential substrates for RNase H. To achieve that, we ensured that the length of the oligonucleotide recognition motifs A and B within the DC was 8–10 nt, which was expected to be sufficient for interaction and cleavage by RNase H (see Figure 1 and Table 1). As indicated above, a few adenine aromatic basis within each recognition motifs A and B were replaced with 2-aminoadenines to enhance the hybridization ability of the DC with miRNA. […] In order to verify this, as well as to evaluate the ability of RNase H to contribute to the miRNA cleavage catalyzed by DC, we studied the kinetics of the target miRNA cleavage performed (1) by the DC alone; (2) by RNase H, when the target miRNA was hybridized with the nonconjugated Dual oligonucleotide (ON); and (3) by both DC and RNase H present in the same reaction mixture. The study was performed against miR-17, miR-155 and miR-21 using a 20-fold excess of DCs or respective oligonucleotides over the matching miRNA (see Table 1 for sequences).
Figure 6 Cleavage kinetics of 5′-[^32P]-labeled miRNAs by DCs and/or RNase H. (a,d,g). Radioautographs of 18% denaturing PAAG showing the profiles of cleavage of miR-17, miR-155 and miR-21, respectively. Duplexes formed by 5′-[^32P]-miRNA (1 µM) and DC or ON (20 µM) were incubated at 37 °C for 48–72 h. RNase H was taken in the concentration of 5 or 100 u/mL. Lanes Im and T1–imidazole ladder and partial RNA digestion with RNase T1, respectively; control–RNA was incubated in the absence of DC or ON and in the presence of RNase H (100 u/mL); (b,e,h) Time dependency of cleavage of miR-17, miR-155 and miR-21, respectively, by DCs and/or RNase H. Data are presented as mean ± s.e. *—indicates statistically significant difference with p < 0.05; (c,f,i). Positions of miR-17, miR-155 and miR-21 cleavage, respectively, induced by RNase H in duplex with ON (red arrows), and by combination of DC (black arrows) and RNase H. A–2-aminoadenine.
The reaction mixture (10 µL) containing 20 mM Tris-HCl, pH 7.8, 40 mM KCl, 8 mM MgCl2, 1 mM DTT, 0.02 mg/mL BSA, 800 cpm (Cherenkov’s counting) of [^32P]-miRNA, 1 µM unlabeled miRNA, 20 µM either DC or Dual oligonucleotide was incubated at 37 °C for 20 min then RNase H (5 or 100 U/mL) was added and the mixture was further incubated for 48 h. Aliquots were taken at 0, 1, 6, 24 and 48 h then the reaction was quenched, RNA cleavage products were collected and analyzed as described above.

Substance: CTACCTGC–linker 1–[GRLRL]2–linker 2–AAGCACTTTG [miRNA-17-DC, Dual oligonucleotide-peptide conjugate targeted to miR-17: catalytic peptide [LRLRG]2 between two 2-aminoadenine-containing oligodeoxyribonucleotides]
- total extent of miRNA cleavage in the presence of RNase H (RNase H 5 u/mL): 44%
- total extent of miRNA cleavage in the presence of RNase H (RNase H 100 u/mL): 92%
- total efficiency of cleavage in the complex with DC relative to the miRNA/ON complex (RNase H at both 5 and 100 u/mL): more than 1.5 fold
- increase in the rate of cleavage by DC with RNase H compared with DC alone (after 1 h): up to 10 fold
- increase in the rate of cleavage by DC with RNase H compared with RNase H alone (after 1 h): 1.5 fold
